In the NIST ThermoML archive (doi:10.1021/je060271a):
Where “and” joins values, the source holds several entries; their conditions need not be identical. Equal entries are not always repeated.

Details: Liquid, Vibrating tube method

CCCCC(=O)OCC(COC(=O)CCCC)(COC(=O)CCCC)COC(=O)CCCC [pentaerythritol tetrapentanoate]
Details | mass density
283.14 K, 1387.6 kPa | 1027.8 kg/m3
283.14 K, 1404.2 kPa | 1027.9 kg/m3
283.14 K, 1537.6 kPa | 1028 kg/m3
283.14 K, 1581.5 kPa | 1028 kg/m3
283.14 K, 1602.2 kPa | 1028 kg/m3
283.14 K, 7137 kPa | 1031.3 kg/m3
283.14 K, 7155.5 kPa | 1031.2 kg/m3
283.14 K, 7173.8 kPa | 1031.2 kg/m3
283.14 K, 7196.4 kPa | 1031.2 kg/m3
283.14 K, 7215.6 kPa | 1031.3 kg/m3
283.14 K, 7545.3 kPa | 1031.5 kg/m3
283.14 K, 7570.8 kPa | 1031.5 kg/m3
283.14 K, 7613.2 kPa | 1031.4 kg/m3
283.14 K, 7932.2 kPa | 1031.7 kg/m3
283.14 K, 7959.6 kPa | 1031.7 kg/m3
283.14 K, 7982.3 kPa | 1031.7 kg/m3
283.14 K, 8033 kPa | 1031.8 kg/m3
283.14 K, 8056.3 kPa | 1031.7 kg/m3
283.14 K, 8103.7 kPa | 1031.7 kg/m3
283.14 K, 8185.7 kPa | 1031.9 kg/m3
283.14 K, 9062.7 kPa | 1032.4 kg/m3
283.14 K, 9128.2 kPa | 1032.3 kg/m3
283.14 K, 9352.3 kPa | 1032.5 kg/m3
283.14 K, 9390.6 kPa | 1032.6 kg/m3
283.14 K, 9422.3 kPa | 1032.5 kg/m3
283.14 K, 9460.6 kPa | 1032.5 kg/m3
283.14 K, 9493.3 kPa | 1032.5 kg/m3
283.14 K, 9525.9 kPa | 1032.5 kg/m3
283.14 K, 9558.8 kPa | 1032.6 kg/m3
283.14 K, 10081 kPa | 1032.9 kg/m3
283.14 K, 10162 kPa | 1032.9 kg/m3
283.14 K, 11953 kPa | 1034 kg/m3
283.15 K, 105.8 kPa | 1027.1 kg/m3
283.15 K, 106 kPa | 1027.1 kg/m3 and 1027.2 kg/m3
283.15 K, 106.2 kPa | 1027.2 kg/m3 and 1027.1 kg/m3 and 1027 kg/m3
283.15 K, 106.3 kPa | 1027.2 kg/m3
283.15 K, 106.7 kPa | 1027.2 kg/m3
283.15 K, 107.6 kPa | 1027.1 kg/m3
283.15 K, 108.1 kPa | 1027.1 kg/m3
283.15 K, 109.5 kPa | 1027 kg/m3
283.15 K, 111.9 kPa | 1027.2 kg/m3
283.15 K, 117.3 kPa | 1027.1 kg/m3
283.15 K, 124.3 kPa | 1027.1 kg/m3
283.15 K, 130.2 kPa | 1027.2 kg/m3
283.15 K, 135 kPa | 1027.1 kg/m3
283.15 K, 140.8 kPa | 1027.1 kg/m3
283.15 K, 147.2 kPa | 1027.1 kg/m3
283.15 K, 154.9 kPa | 1027.1 kg/m3
283.15 K, 163.9 kPa | 1027.1 kg/m3
283.15 K, 178 kPa | 1027.2 kg/m3
283.15 K, 192.4 kPa | 1027.1 kg/m3
283.15 K, 213.6 kPa | 1027.1 kg/m3
283.15 K, 233.4 kPa | 1027.1 kg/m3
283.15 K, 247.7 kPa | 1027.2 kg/m3
283.15 K, 264 kPa | 1027.2 kg/m3
283.15 K, 279.7 kPa | 1027.1 kg/m3
283.15 K, 296.5 kPa | 1027.1 kg/m3
283.15 K, 313.2 kPa | 1027.2 kg/m3
283.15 K, 332 kPa | 1027.2 kg/m3
283.15 K, 349 kPa | 1027.3 kg/m3
283.15 K, 368.1 kPa | 1027.2 kg/m3
283.15 K, 391.4 kPa | 1027.3 kg/m3
283.15 K, 406.5 kPa | 1027.2 kg/m3
283.15 K, 423.1 kPa | 1027.4 kg/m3
283.15 K, 437.7 kPa | 1027.3 kg/m3
283.15 K, 452.6 kPa | 1027.3 kg/m3
283.15 K, 469.3 kPa | 1027.3 kg/m3
283.15 K, 482.3 kPa | 1027.4 kg/m3
283.15 K, 495.9 kPa | 1027.3 kg/m3
283.15 K, 512.7 kPa | 1027.3 kg/m3
283.15 K, 528.4 kPa | 1027.4 kg/m3
283.15 K, 544.4 kPa | 1027.4 kg/m3
283.15 K, 563 kPa | 1027.2 kg/m3
283.15 K, 579.3 kPa | 1027.3 kg/m3
283.15 K, 596.9 kPa | 1027.5 kg/m3
283.15 K, 618.9 kPa | 1027.3 kg/m3
283.15 K, 638.7 kPa | 1027.4 kg/m3
283.15 K, 659.6 kPa | 1027.5 kg/m3
283.15 K, 682 kPa | 1027.5 kg/m3
283.15 K, 710.3 kPa | 1027.4 kg/m3
283.15 K, 735.2 kPa | 1027.6 kg/m3
283.15 K, 767.3 kPa | 1027.5 kg/m3
283.15 K, 795.3 kPa | 1027.5 kg/m3
283.15 K, 819.4 kPa | 1027.5 kg/m3
283.15 K, 839.6 kPa | 1027.6 kg/m3
283.15 K, 865.5 kPa | 1027.6 kg/m3
283.15 K, 888.6 kPa | 1027.5 kg/m3
283.15 K, 912.5 kPa | 1027.6 kg/m3
283.15 K, 938.4 kPa | 1027.7 kg/m3
283.15 K, 969.9 kPa | 1027.6 kg/m3
283.15 K, 997.3 kPa | 1027.6 kg/m3
283.15 K, 1027 kPa | 1027.7 kg/m3
283.15 K, 1064.4 kPa | 1027.7 kg/m3
283.15 K, 1096.7 kPa | 1027.7 kg/m3
283.15 K, 1131.3 kPa | 1027.7 kg/m3
283.15 K, 1175 kPa | 1027.7 kg/m3
283.15 K, 1212.2 kPa | 1027.8 kg/m3
283.15 K, 1243.1 kPa | 1027.7 kg/m3
283.15 K, 1258.2 kPa | 1027.8 kg/m3
283.15 K, 1275 kPa | 1027.8 kg/m3
283.15 K, 1289.5 kPa | 1027.7 kg/m3
283.15 K, 1304.2 kPa | 1027.8 kg/m3
283.15 K, 1321.8 kPa | 1027.8 kg/m3
283.15 K, 1336.7 kPa | 1027.8 kg/m3
283.15 K, 1351.8 kPa | 1027.9 kg/m3
283.15 K, 1371.1 kPa | 1027.9 kg/m3
283.15 K, 1421.6 kPa | 1027.8 kg/m3
283.15 K, 1442.1 kPa | 1027.9 kg/m3
283.15 K, 1459.8 kPa | 1027.9 kg/m3
283.15 K, 1477.5 kPa | 1027.9 kg/m3
283.15 K, 1499.7 kPa | 1027.9 kg/m3
283.15 K, 1518.7 kPa | 1027.9 kg/m3
283.15 K, 1561.4 kPa | 1027.9 kg/m3
283.15 K, 1627.3 kPa | 1028.1 kg/m3
283.15 K, 1648.9 kPa | 1028.1 kg/m3
283.15 K, 1671.6 kPa | 1028 kg/m3
283.15 K, 1695.7 kPa | 1028 kg/m3
283.15 K, 1719.2 kPa | 1028.1 kg/m3
283.15 K, 1748.3 kPa | 1028.1 kg/m3
283.15 K, 1772.8 kPa | 1028 kg/m3
283.15 K, 1798.3 kPa | 1028 kg/m3
283.15 K, 1824.2 kPa | 1028.1 kg/m3
283.15 K, 1856.3 kPa | 1028.2 kg/m3
283.15 K, 1883 kPa | 1028.2 kg/m3
283.15 K, 1911.7 kPa | 1028.1 kg/m3
283.15 K, 1940.6 kPa | 1028.2 kg/m3
283.15 K, 1976.1 kPa | 1028.2 kg/m3
283.15 K, 2006.6 kPa | 1028.2 kg/m3
283.15 K, 2039.2 kPa | 1028.3 kg/m3
283.15 K, 2073.9 kPa | 1028.3 kg/m3
283.15 K, 2114 kPa | 1028.3 kg/m3
283.15 K, 2165.9 kPa | 1028.3 kg/m3
283.15 K, 2243 kPa | 1028.4 kg/m3
283.15 K, 2290.5 kPa | 1028.4 kg/m3
283.15 K, 2304.2 kPa | 1028.4 kg/m3
283.15 K, 2315.5 kPa | 1028.5 kg/m3
283.15 K, 2325.4 kPa | 1028.5 kg/m3
283.15 K, 2335.1 kPa | 1028.5 kg/m3
283.15 K, 2345 kPa | 1028.4 kg/m3
283.15 K, 2356.8 kPa | 1028.4 kg/m3
283.15 K, 2367 kPa | 1028.5 kg/m3
283.15 K, 2376.9 kPa | 1028.5 kg/m3
283.15 K, 2387.1 kPa | 1028.5 kg/m3
283.15 K, 2399.6 kPa | 1028.4 kg/m3
283.15 K, 2409.9 kPa | 1028.5 kg/m3
283.15 K, 2419.9 kPa | 1028.6 kg/m3
283.15 K, 2432.6 kPa | 1028.5 kg/m3
283.15 K, 2443.2 kPa | 1028.4 kg/m3
283.15 K, 2453.4 kPa | 1028.5 kg/m3
283.15 K, 2464 kPa | 1028.6 kg/m3
283.15 K, 2476.8 kPa | 1028.5 kg/m3
283.15 K, 2487.6 kPa | 1028.7 kg/m3
283.15 K, 2498.3 kPa | 1028.4 kg/m3
283.15 K, 2511.9 kPa | 1028.5 kg/m3
283.15 K, 2523 kPa | 1028.4 kg/m3
283.15 K, 2534.1 kPa | 1028.6 kg/m3
283.15 K, 2545.9 kPa | 1028.6 kg/m3
283.15 K, 2559.4 kPa | 1028.6 kg/m3
283.15 K, 2570.3 kPa | 1028.6 kg/m3
283.15 K, 2581.9 kPa | 1028.6 kg/m3
